Each compound was assayed against PDE4B (Homo sapiens, UniProt Q07343) (assay: Scintillation Proximity (SPA) Assay of PDE4B enzyme inhibition). Settings: test substance 1 μM; one hour incubation of [H3]-cAMP with PDE4B enzyme at 30° C.; read-out: % Inhibition PDE4B @ 1 μM.
Format: biochemical
Experimental: The inhibitions (in %) at 1 μM of the individual Example substances are included in the following Tables of Examples and were determined as follows:
The Scintillation Proximity (SPA) Assays (GE Healthcare, No. TRKQ7090) make use of the different affinities of cyclic 3′-5′-adenosine monophosphate (cAMP, low affinity) and linear 5′-adenosine monophosphate (AMP, high affinity) for yttrium silicate scintillator beads. The cAMP specific phosphodiesterase (PDE) PDE4B cleaves the 3′-phosphoester bond of the tritium-labelled [H3]-cAMP to form the [H3]-5′-AMP. Because of its higher affinity for the scintillator beads this [H3]-AMP accumulates on the beads and causes scintillation events (flashes of light) which are measured in a Wallac Microbeta Scintillation Counter.
The test starts with one hours incubation of [H3]-cAMP with the PDE4B enzyme in assay buffer at 30° C., once with the Example substance that is to be tested (in a concentration of 1 μM) and once without the Example substance that is to be tested. After this incubation the reaction is stopped by the addition of the beads. The beads are given an opportunity to settle over the next 45 minutes, then they are measured in the Scintillation Counter. If the substance is capable of inhibiting the enzymatic activity of the PDE4B, less [H3]-AMP is formed during the incubation phase and fewer scintillation events can be measured.

Chain of PDE4B (Q07343 whole entry, species assumed): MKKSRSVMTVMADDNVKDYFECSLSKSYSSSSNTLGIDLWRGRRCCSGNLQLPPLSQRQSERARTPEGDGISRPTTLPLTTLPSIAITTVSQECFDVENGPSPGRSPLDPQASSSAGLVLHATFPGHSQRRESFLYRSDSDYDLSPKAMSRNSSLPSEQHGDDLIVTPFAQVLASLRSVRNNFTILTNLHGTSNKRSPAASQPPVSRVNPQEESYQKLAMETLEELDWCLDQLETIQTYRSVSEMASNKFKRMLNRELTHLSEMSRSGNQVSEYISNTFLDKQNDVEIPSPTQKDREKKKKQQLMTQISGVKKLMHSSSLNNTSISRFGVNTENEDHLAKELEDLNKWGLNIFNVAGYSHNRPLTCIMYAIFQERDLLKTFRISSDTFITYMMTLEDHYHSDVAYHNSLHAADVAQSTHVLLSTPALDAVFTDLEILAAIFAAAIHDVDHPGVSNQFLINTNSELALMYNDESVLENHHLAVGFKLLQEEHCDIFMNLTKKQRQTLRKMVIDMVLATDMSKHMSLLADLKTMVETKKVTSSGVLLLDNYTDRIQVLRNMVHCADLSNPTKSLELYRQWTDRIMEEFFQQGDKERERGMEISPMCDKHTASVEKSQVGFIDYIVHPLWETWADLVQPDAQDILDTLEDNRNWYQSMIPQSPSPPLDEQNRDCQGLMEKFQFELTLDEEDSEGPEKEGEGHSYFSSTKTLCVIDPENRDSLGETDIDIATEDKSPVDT

Row | inhibition at 1 µM [%] | SMILES
1 | 94 | CC(C)C(CO)Nc1nc(N2CCN(c3ccc(Cl)c(F)c3)CC2)nc2c1[S+]([O-])CC2 [Example 60, (R)-2-{2-[4-(4-chloro-3-fluorophenyl)-piperazin-1-yl]-5-oxo-6,7-dihydro-5H-5λ^4-thieno[3,2-d]pyrimidin-4-ylamino}-3-methylbutan-1-ol]
2 | 96 | CC(C)C(CO)Nc1nc(N2CCN(c3cccc(F)c3)CC2)nc2c1[S+]([O-])CC2 [Example 27, (R)-2-{2-[4-(3-FLUOROPHENYL)-PIPERAZIN-1-YL]-5-OXO-6,7-DIHYDRO-5H-5λ^4-THIENO[3,2-D]PYRIMIDIN-4-YLAMINO}-3-METHYLBUTAN-1-OL]
3 | 63 | Cc1cc(N2CCN(c3nc4c(c(NC(CO)C(C)C)n3)[S+]([O-])CC4)CC2)ccc1Cl [Example 54, (R)-2-{2-[4-(4-chloro-3-methylphenyl)-piperazin-1-yl]-5-oxo-6,7-dihydro-5H-5λ^4-thieno[3,2-d]pyrimidin-4-ylamino}-3-methylbutan-1-ol]
4 | 94 | Cc1cccc(N2CCN(c3nc4c(c(NC(CO)C(C)C)n3)[S+]([O-])CC4)CC2)c1 [Example 30, (R)-3-METHYL-2-[5-OXO-2-(4-m-TOLYLPIPERAZIN-1-YL)-6,7-DIHYDRO-5H-5λ^4-THIENO[3,2-D]PYRIMIDIN-4-YLAMINO]-BUTAN-1-OL]
5 | 96 | CC(C)[C@H](CO)Nc1nc(N2CCN(c3cc(Cl)cc(Cl)c3)CC2)nc2c1[S+]([O-])CC2 (stereo partly drawn) [Example 68, (R)-2-{2-[4-(3,5-DICHLOROPHENYL)-PIPERAZIN-1-YL]-5-OXO-6,7-DIHYDRO-5H-5λ^4-THIENO[3,2-D]PYRIMIDIN-4-YLAMINO}-3-METHYLBUTAN-1-OL]

More lines, now with the values behind:

Row | SMILES | inhibition at 1 µM [%]
6 | [O-][S+]1CCc2nc(N3CCN(c4ccccc4Cl)CC3)nc(NC3(CO)CC3)c21 (centres unmarked) [Example 7, (1-{2-[4-(2-chlorophenyl)-piperazin-1-yl]-5-oxo-6,7-dihydro-5H-5λ^4-thieno[3,2-d]pyrimidin-4-ylamino}-cyclopropyl)-methanol] | 94
7 | [O-][S+]1CCc2nc(N3CCN(c4ccc(Cl)c(F)c4)CC3)nc(Nc3cccc(F)c3)c21 (centres unmarked) [Example 63, {2-[4-(4-CHLORO-3-FLUOROPHENYL)-PIPERAZIN-1-YL]-5-OXO-6,7-DIHYDRO-5H-5λ^4-THIENO[3,2-D]PYRIMIDIN-4-YL}-(3-FLUOROPHENYL)-AMINE] | 95
8 | [O-][S+]1CCc2nc(N3CCN(c4ccccc4Cl)CC3)nc(NC3CCOCC3)c21 (centres unmarked) [Example 19, {2-[4-(2-chlorophenyl)-piperazin-1-yl]-5-oxo-6,7-dihydro-5H-5λ^4-thieno[3,2-d]pyrimidin-4-yl}-(tetrahydropyran-4-yl)-amine] | 95
9 | [O-][S+]1CCc2nc(N3CCN(c4ccc(Cl)cc4F)CC3)nc(NC3CCOCC3)c21 (centres unmarked) [Example 107, {2-[4-(4-CHLORO-2-FLUOROPHENYL)-PIPERAZIN-1-YL]-5-OXO-6,7-DIHYDRO-5H-5λ^4-THIENO[3,2-D]PYRIMIDIN-4-YL}-(TETRAHYDROPYRAN-4-YL)-AMINE] | 94
10 | Cc1cc(Cl)ccc1N1CCN(c2nc3c(c(NC4(CO)CC4)n2)[S+]([O-])CC3)CC1 (centres unmarked) [Example 81, (1-{2-[4-(4-CHLORO-2-METHYLPHENYL)-PIPERAZIN-1-YL]-5-OXO-6,7-DIHYDRO-5H-5λ^4-THIENO[3,2-D]PYRIMIDIN-4-YLAMINO}-CYCLOPROPYL)-METHANOL] | 95
11 | N#Cc1ccccc1N1CCN(c2nc3c(c(Nc4cccc(F)c4)n2)[S+]([O-])CC3)CC1 (centres unmarked) [Example 22, 2-{4-[4-(3-FLUOROPHENYLAMINO)-5-OXO-6,7-DIHYDRO-5H-5λ^4-THIENO[3,2-D]PYRIMIDIN-2-YL]-PIPERAZIN-1-YL}-BENZONITRILE] | 97
